# Values of other authors in PMC6816764 (Journal of the American Chemical Society, 2018).
# Assays:
# [1] = cited from earlier work
# [2] = in nitrogen-sparged H2O; cited from earlier work
molecule,measurement,setting,value
[Ru(tpy)(dppn)(py)]^2+,1O2 production efficiency,[1]; ref 58a,98%
[Ru+2].c1ccc(-c2ccccn2)nc1.c1ccc(-c2ccccn2)nc1.c1ccc(-c2ccccn2)nc1 [[Ru(bpy)3]^2+],Φem of reference,[2],0.042
same,ΦΔ of standard,[1]; in CH3OH,0.81
